# From US9212168B2 (priority 2011, dated 2015)
# Legend:
# HCV genotype 1b replicon = HCV genotype 1b replicon assay (Renilla luciferase readout); assay type: cell-based, hepatitis C virus; settings: HCV genotype 1b replicon
# Source text: Assay 1: HCV Genotype 1b Replicon Assay
# The HCV genotype 1b replicon cell line was obtained from Apath LLC (Brooklyn, N.Y.) (APC144; Huh7 cell background). This subgenomic replicon contains the N-terminus of the HCV core protein fused to the neomycin-resistance selectable marker. The EMCV IRES lies downstream and drives expression of humanized Renilla luciferase fused to the non-structural proteins NS3-NS5B. This cell line was used to determine compound potency using the luciferase activity readout as a measurement of compound inhibition of replicon levels.
# Cells were grown at 37° C. in a 5% CO2 humidified incubator in DMEM (Invitrogen) with 10% FBS (HyClone), 1×NEAA (Invitrogen), 1× Pen-Strep (Invitrogen), and 500 μg/mL G418 (Invitrogen). On day 1 of the assay, cells were plated at 10,000 cells/well in white 96-well tissue culture plates (Costar) in 200 μL media lacking G418. Four hours later, once the cells have adhered, the media was removed and replaced with media (no G418) containing dose-responses of test compounds. Compounds were initially diluted in DMSO and then diluted another 200× in media to bring the final DMSO concentration down to 0.5%. The cells were incubated with test compounds for 48 hours. At the end of the incubation period, media and compound were removed from the plates and the luciferase activity was determined using Promega Renilla-Glo reagents.
# To analyze the data, the luciferase activity was plotted vs. the compound concentration, and EC50 values were determined from a 4-parameter robust fit model with the GraphPad Prism software package (GraphPad Software, Inc., San Diego, Calif.). Results are expressed as the negative decadic logarithm of the EC50 value, pEC50.
# Test compounds having a higher pEC50 value in this assay show greater inhibition of HCV genotype 1b replication.
# HCV genotype 1a replicon = HCV genotype 1a replicon assay (NS3 protease activity readout); assay type: cell-based, hepatitis C virus; settings: HCV genotype 1a replicon
# How it was run: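 Genotype 1a subgenomic replicon cells (APC89, Huh7.5) were treated with compound dose-responses in G418-free medium, 0.5% DMSO final, for 48 or 72 hours at 37° C. Lysate NS3/4a protease activity measured with 15 μM FRET substrate, 20 min at 37° C (ex 340/em 509 nm); EC50 by 4-parameter fit.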
SMILES,Genotype 1b (HCV genotype 1b replicon),Genotype 1a (HCV genotype 1a replicon)
CNC(=O)N1CCN(c2ccc(C(=O)Nc3cc(C(F)(F)F)c(-c4ccc(-c5c[nH]c([C@@H]6C[C@H](C)CN6C(=O)[C@@H](NC(=O)OC)C(C)C)n5)cc4)cc3F)cn2)[C@H](C)C1 [Example 1-9],D (D represents pEC50>10 (EC50<0.1 nM)),D (D represents pEC50>10 (EC50<0.1 nM))
COC(=O)N[C@H](C(=O)N1C[C@@H](C)C[C@H]1c1nc(-c2ccc(-c3cc(F)c(NC(=O)c4ccc(N5CCN(C(=O)[C@H]6CC6(C)C)C[C@H]5C)nc4)cc3OC(F)(F)F)cc2)c[nH]1)C(C)C [Example 1-10],D (D represents pEC50>10 (EC50<0.1 nM)),D (D represents pEC50>10 (EC50<0.1 nM))
COC(=O)N[C@H](C(=O)N1C[C@@H](C)C[C@H]1c1nc(-c2ccc(-c3cc(Cl)c(NC(=O)c4ccc(N5C[C@H](C)N(C(=O)[C@H]6CC6(C)C)C[C@H]5C)nc4)cc3C(F)(F)F)cc2)c[nH]1)C(C)C [Example 1-11],D (D represents pEC50>10 (EC50<0.1 nM)),D (D represents pEC50>10 (EC50<0.1 nM))
CNC(=O)N1C[C@@H](C)N(c2ccc(C(=O)Nc3cc(C(F)(F)F)c(-c4ccc(-c5c[nH]c([C@@H]6C[C@H](C)CN6C(=O)[C@@H](NC(=O)OC)C(C)C)n5)cc4)cc3Cl)cn2)C[C@@H]1C [Example 1-12],D (D represents pEC50>10 (EC50<0.1 nM)),D (D represents pEC50>10 (EC50<0.1 nM))
COC(=O)N[C@H](C(=O)N1C[C@@H](C)C[C@H]1c1nc(-c2ccc(-c3cc(F)c(NC(=O)c4ccc(N5C[C@H](C)N(C(=O)[C@H]6CC6(C)C)C[C@H]5C)nc4)cc3OC(F)(F)F)cc2)c[nH]1)C(C)C [Example 1-13],D (D represents pEC50>10 (EC50<0.1 nM)),D (D represents pEC50>10 (EC50<0.1 nM))
COC(=O)N[C@H](C(=O)N1C[C@@H](C)C[C@H]1c1nc(-c2ccc(-c3cc(F)c(NC(=O)c4ccc(N5C[C@H](C)N(C(=O)c6c[nH]cn6)C[C@H]5C)nc4)cc3OC(F)(F)F)cc2)c[nH]1)C(C)C [Example 1-14],D (D represents pEC50>10 (EC50<0.1 nM)),D (D represents pEC50>10 (EC50<0.1 nM))
COC(=O)N[C@H](C(=O)N1C[C@@H](C)C[C@H]1c1nc(-c2ccc(-c3cc(F)c(NC(=O)c4ccc(N5C[C@H](C)N(C(=O)C6CC6)C[C@H]5C)nc4)cc3OC(F)(F)F)cc2)c[nH]1)C(C)C [Example 1-15],D (D represents pEC50>10 (EC50<0.1 nM)),D (D represents pEC50>10 (EC50<0.1 nM))
CNC(=O)N1C[C@@H](C)N(c2ccc(C(=O)Nc3cc(OC(F)(F)F)c(-c4ccc(-c5c[nH]c([C@@H]6C[C@H](C)CN6C(=O)[C@@H](NC(=O)OC)C(C)C)n5)cc4)cc3F)cn2)C[C@@H]1C [Example 1-16],D (D represents pEC50>10 (EC50<0.1 nM)),D (D represents pEC50>10 (EC50<0.1 nM))
CNC(=O)N1CCN(c2ccc(C(=O)Nc3cc(OC(F)(F)F)c(-c4ccc(-c5c[nH]c([C@@H]6C[C@H](C)CN6C(=O)[C@@H](NC(=O)OC)C(C)C)n5)cc4)cc3Cl)cn2)[C@H](C)C1 [Example 1-17],D (D represents pEC50>10 (EC50<0.1 nM)),D (D represents pEC50>10 (EC50<0.1 nM))
COC(=O)N[C@H](C(=O)N1C[C@@H](C)C[C@H]1c1nc(-c2ccc(-c3cc(Cl)c(NC(=O)c4ccc(N5CCN(C(=O)c6c[nH]cn6)C[C@H]5C)nc4)cc3OC(F)(F)F)cc2)c[nH]1)C(C)C [Example 1-18],D (D represents pEC50>10 (EC50<0.1 nM)),D (D represents pEC50>10 (EC50<0.1 nM))
COC(=O)N[C@H](C(=O)N1C[C@@H](C)C[C@H]1c1nc(-c2ccc(-c3cc(Cl)c(NC(=O)c4ccc(N5C[C@H](C)N(C(=O)c6c[nH]cn6)C[C@H]5C)nc4)cc3OC(F)(F)F)cc2)c[nH]1)C(C)C [Example 1-19],D (D represents pEC50>10 (EC50<0.1 nM)),D (D represents pEC50>10 (EC50<0.1 nM))
COC(=O)N[C@H](C(=O)N1C[C@@H](C)C[C@H]1c1nc(-c2ccc(-c3cc(Cl)c(NC(=O)c4ccc(N5C[C@H](C)N(C(=O)[C@H]6CC6(C)C)C[C@H]5C)nc4)cc3OC(F)(F)F)cc2)c[nH]1)C(C)C [Example 1-20],D (D represents pEC50>10 (EC50<0.1 nM)),D (D represents pEC50>10 (EC50<0.1 nM))
